For one assay, the system named is HESC cells. As to the kind of experiment: Binding of peptide-displaying T7 phages to cultured cells (plaque assay). Also noted: species or system human. Conditions: peptide displayed on T7 phage, HESC cells in suspension, 4 °C, 1 h, washed, N = 3. As for the experimental part: (§1) Peptide-displaying T7 bacteriophages were prepared by cloning nucleotide sequences coding for different peptides into phage genomic DNA to be expressed on the phage surface as C-terminal fusions to capsid protein. The complementary oligonucleotides were annealed, and the cloning was performed according to the manufacturer’s protocol using the T7Select® 415-1 Cloning Kit (Millipore, 70015-3, Merck KGaA, Darmstadt, Germany). Peptide-displaying phage clones were thereafter amplified in complementing host bacterial cells BLT5403 and purified with polyethylene glycol according to an established protocol.
(§2) Prior to phage addition, 12Z and HESC cells were detached, washed with PBS, and resuspended in 0.5% BSA containing DMEM. Phages expressing a single peptide of interest (5 × 10^7 PFU/mL) were added to 5 × 10^7 cells, wherein insertless phage was used as a negative control. Incubation with phage clones was carried out on a slowly rocking platform at 4 °C for 1 h. Cells were washed four times with 0.5% BSA containing DMEM to eliminate unbound phages. Finally, the cells together with bound phages were resuspended in 1% NP40 containing LB solution, and plaque assay was performed as described earlier. Briefly, the amount of phage in cell lysates was determined by titering using Escherichia coli strain BLT5615 in LB medium containing 2 mM IPTG.
(§3) Figure 1 Binding of peptide-phages to cultured 12Z and HESC cells. Cells were incubated with the different peptide-displaying phages at 4 °C for 1 h, washed, and phage binding quantified by plaque assay. The phage binding is represented as a fold over insertless phage. N = 3, error bars = ±SEM. *** p < 0.001 (compared with insertless phage).

The next assay deals with 12Z cells. Described as above. Also noted: species or system human. The conditions noted are these: peptide displayed on T7 phage, 12Z cells in suspension, 4 °C, 1 h, washed, N = 3. As for the experimental part:
as §1, §2, §3

For the substance AGRGRLVR (displayed on T7 phage) [PL3], the “phage binding, fold over insertless phage” value (from here on “phage binding, fold”) with HESC cells and with 12Z cells was 4–6 fold each time.

As to “C * RGDKGPDC * (disulfide) [iRGD, disulfide-cyclised peptide targeting angiogenic αv integrins and NRP-1]”, the “phage binding, fold” value in the assay with HESC cells came to 9 fold; with 12Z cells it was 3 fold.

Turning to PPRRGLIKLKTS [PL1], the “phage binding, fold” value in the assay with HESC cells and in the assay with 12Z cells was 13–16 fold each time. Consider RPARPAR, for which the “phage binding, fold” value is ~ 2 fold in the assay on HESC cells and “low/background binding” with 12Z cells. On to RTRLHTR [EM2, receptor unknown], for which the “phage binding, fold” value with HESC cells is on record as ~ 2 fold; in the assay on 12Z cells, “low/background binding”.

VRRADNRPG [EM1, receptor CNGB3]: the “phage binding, fold” value in the assay on 12Z cells is recorded as “low/background binding”.

The values are drawn from publication PMC8708492, “Homing Peptide-Based Targeting of Tenascin-C and Fibronectin in Endometriosis” (Nanomaterials, 2021).
